Laboratory results published in US10336761B2, “TGFβ receptor antagonist” (BRISTOL-MYERS SQUIBB COMPANY, priority 2015, dated 2019).

Biological target: HIS-TGFβR1 T204D (Homo sapiens (Human), UniProt P36897, T204D)
Experiment: HTRF probe-displacement assay, HIS-TGFβR1 T204D
Type: binding
Details: 1 hour at room temperature

Sequence of HIS-TGFβR1 T204D (P36897 34-503 T204D): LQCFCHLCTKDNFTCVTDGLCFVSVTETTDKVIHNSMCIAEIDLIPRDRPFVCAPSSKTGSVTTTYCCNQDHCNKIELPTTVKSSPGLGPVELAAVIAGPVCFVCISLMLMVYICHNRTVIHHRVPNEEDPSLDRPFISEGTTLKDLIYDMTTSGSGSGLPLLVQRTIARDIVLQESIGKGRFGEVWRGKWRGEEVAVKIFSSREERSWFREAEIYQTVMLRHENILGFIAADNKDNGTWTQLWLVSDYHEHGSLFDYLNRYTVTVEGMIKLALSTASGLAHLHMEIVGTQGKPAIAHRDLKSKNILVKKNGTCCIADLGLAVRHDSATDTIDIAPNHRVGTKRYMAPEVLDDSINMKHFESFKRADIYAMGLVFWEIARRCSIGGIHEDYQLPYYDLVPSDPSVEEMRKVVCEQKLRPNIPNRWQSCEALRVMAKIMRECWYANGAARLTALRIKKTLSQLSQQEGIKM

| IC50 [nM] | Compound |
| --- | --- |
| 110 | Cc1cccc(-c2nc(Nc3ccncc3C(=O)N(C)CCN(C)C)c3cccn3n2)n1 [Example 162, N-[2-(dimethylamino)ethyl]-N-methyl-4-{[2-(6-methylpyridin-2-yl)pyrrolo[2,1-f][1,2,4]triazin-4-yl]amino}pyridine-3-carboxamide] |
| 880 | COc1cccc(-c2nc(Nc3ccncc3F)c3cc(CNC[C@@H](F)C(C)(C)O)cn3n2)n1 [Example 208, (3R)-3-fluoro-4-[({4-[(3-fluoropyridin-4-yl)amino]-2-(6-methoxypyridin-2-yl)pyrrolo[2,1-f][1,2,4]triazin-6-yl}methyl)amino]-2-methylbutan-2-ol] |
| 0.86 | CC(=O)Nc1cc(Nc2nc(-c3cccc(F)n3)nn3cccc23)ccn1 [Example 291, N-(4-{[2-(6-fluoropyridin-2-yl)pyrrolo[2,1-f][1,2,4]triazin-4-yl]amino}pyridin-2-yl)acetamide] |
| 4.5 | CCNc1cc(Nc2nc(-c3ccccn3)nn3ccc(CNCC(C)(C)O)c23)ccn1 [Example 258, 1-{[(4-{[2-(ethylamino)pyridin-4-yl]amino}-2-(pyridin-2-yl)pyrrolo[2,1-f][1,2,4]triazin-5-yl)methyl]amino}-2-methylpropan-2-ol] |
| 1.7 | O=C(CN1CCCCC1)Nc1cc(Nc2nc(-c3cccc(C(F)(F)F)n3)nn3cccc23)ccn1 [Example 329, 2-(piperidin-1-yl)-N-[4-({2-[6-(trifluoromethyl)pyridin-2-yl]pyrrolo[2,1-f][1,2,4]triazin-4-yl}amino)pyridin-2-yl]acetamide] |
| 70 | Fc1cnccc1Nc1nc(-c2ccc(C(F)(F)F)cn2)nn2cccc12 [Example 248, 3-fluoro-N-{2-[5-(trifluoromethyl)pyridin-2-yl]pyrrolo[2,1-f][1,2,4]triazin-4-yl}pyridin-4-amine] |
| 2 | CC(=O)Nc1cc(Nc2nc(-c3cccc(C(F)(F)F)n3)nn3ccc(CNCC(C)(C)O)c23)ccn1 [Example 254, N-{4-[(5-{[(2-hydroxy-2-methylpropyl)amino]methyl}-2-[6-(trifluoromethyl)pyridin-2-yl]pyrrolo[2,1-f][1,2,4]triazin-4-yl)amino]pyridin-2-yl}acetamide] |
| 15 | Fc1cnccc1Nc1nc(-c2ccccn2)nn2ccc(CNC34CC5CC(CC(C5)C3)C4)c12 [Example 282, N-(5-{[(adamantan-1-yl)amino]methyl}-2-(pyridin-2-yl)pyrrolo[2,1-f][1,2,4]triazin-4-yl)-3-fluoropyridin-4-amine] |
| 2200 | COc1cccc(-c2nc(Nc3ccncc3F)c3cc(CCCCN4CCN(C)CC4)cn3n2)n1 [Example 43, 3-fluoro-N-[2-(6-methoxypyridin-2-yl)-6-[4-(4-methylpiperazin-1-yl)butyl]pyrrolo[2,1-f][1,2,4]triazin-4-yl]pyridin-4-amine] |
| 10 | COc1cccc(-c2nc(Nc3ccncc3C(F)F)c3cccn3n2)n1 [Example 15, 3-(difluoromethyl)-N-[2-(6-methoxypyridin-2-yl)pyrrolo[2,1-f][1,2,4]triazin-4-yl]pyridin-4-amine] |
| 3 | Fc1cnccc1Nc1nc(-c2cccc(OC(F)(F)F)n2)nn2cccc12 [Example 289, 3-fluoro-N-{2-[6-(trifluoromethoxy)pyridin-2-yl]pyrrolo[2,1-f][1,2,4]triazin-4-yl}pyridin-4-amine] |
| 88 | Fc1c(Nc2nc(-c3cccc(C(F)F)n3)nn3cccc23)ccnc1Cl [Example 7, 2-chloro-N-{2-[6-(difluoromethyl)pyridin-2-yl]pyrrolo[2,1-f][1,2,4]triazin-4-yl}-3-fluoropyridin-4-amine] |
| 98 | COc1cccc(-c2nc(Nc3ccncc3F)c3c(CNC[C@@H](F)C(C)(C)O)ccn3n2)n1 [Example 120, (3R)-3-fluoro-4-[({4-[(3-fluoropyridin-4-yl)amino]-2-(6-methoxypyridin-2-yl)pyrrolo[2,1-f][1,2,4]triazin-5-yl}methyl)amino]-2-methylbutan-2-ol] |
| 65 | NC(=O)c1cccc(-c2nc(Nc3ccncc3F)c3cccn3n2)n1 [Example 5, 6-{4-[(3-fluoropyridin-4-yl)amino]pyrrolo[2,1-f][1,2,4]triazin-2-yl}pyridine-2-carboxamide] |
| 3.6 | CC(=O)Nc1cc(Nc2nc(-c3ccc(F)c(C)n3)nn3cccc23)c(F)cn1 [Example 333, N-(5-fluoro-4-{[2-(5-fluoro-6-methylpyridin-2-yl)pyrrolo[2,1-f][1,2,4]triazin-4-yl]amino}pyridin-2-yl)acetamide] |
| 10 | Fc1cnccc1Nc1nc(-c2ccccn2)nn2ccc(CNCC3CNC3)c12 [Example 266, N-(5-{[(azetidin-3-ylmethyl)amino]methyl}-2-(pyridin-2-yl)pyrrolo[2,1-f][1,2,4]triazin-4-yl)-3-fluoropyridin-4-amine] |
| 380 | O=C(N[C@@H]1CCCC[C@H]1O)c1cnccc1Nc1nc(-c2cccc(C(F)F)n2)nn2cccc12 [Example 180, 4-({2-[6-(difluoromethyl)pyridin-2-yl]pyrrolo[2,1-f][1,2,4]triazin-4-yl}amino)-N-[(1R,2R)-2-hydroxycyclohexyl]pyridine-3-carboxamide] |
| 69 | Fc1cc(Nc2nc(-c3ccccn3)nn3cccc23)ccn1 [Example 55, 2-fluoro-N-[2-(pyridin-2-yl)pyrrolo[2,1-f][1,2,4]triazin-4-yl]pyridin-4-amine] |
| 260 | O=C(NCCN1CCS(=O)(=O)CC1)c1cnccc1Nc1nc(-c2cccc(C(F)(F)F)n2)nn2cccc12 [Example 179, N-[2-(1,1-dioxo-1,4-thiomorpholin-4-yl)ethyl]-4-({2-[6-(trifluoromethyl)pyridin-2-yl]pyrrolo[2,1-f][1,2,4]triazin-4-yl}amino)pyridine-3-carboxamide] |
| 210 | FC(F)(F)c1cccc(-c2nc(Nc3ccncc3OCCCN3CCOCC3)c3cccn3n2)n1 [Example 75] |
| 0.25 | Cc1cccc(-c2nc(Nc3ccncc3F)c3c(CN4CCC(F)(F)CC4)ccn3n2)n1 [Example 76, N-{5-[(4,4-difluoropiperidin-1-yl)methyl]-2-(6-methylpyridin-2-yl)pyrrolo[2,1-f][1,2,4]triazin-4-yl}-3-fluoropyridin-4-amine] |
| 260 | COc1cccc(-c2nc(Nc3ccncc3F)c3c(CCN4CCC(N)CC4)ccn3n2)n1 [Example 114, N-{5-[2-(4-aminopiperidin-1-yl)ethyl]-2-(6-methoxypyridin-2-yl)pyrrolo[2,1-f][1,2,4]triazin-4-yl}-3-fluoropyridin-4-amine] |
| 30 | Cc1cccc(-c2nc(Nc3ccncc3C(=O)N3CCOCC3)c3cccn3n2)n1 [Example 163, N-[2-(6-methylpyridin-2-yl)pyrrolo[2,1-f][1,2,4]triazin-4-yl]-3-(morpholine-4-carbonyl)pyridin-4-amine] |
| 6.3 | OCC1(NCc2ccn3nc(-c4ccccn4)nc(Nc4ccncc4F)c23)CCCC1 [Example 244, {1-[({4-[(3-fluoropyridin-4-yl)amino]-2-(pyridin-2-yl)pyrrolo[2,1-f][1,2,4]triazin-5-yl}methyl)amino]cyclopentyl}methanol] |
| 1.1 | OC1CCCCC1NCc1ccn2nc(-c3ccccn3)nc(Nc3ccncc3F)c12 (stereo not shown) [Example 272, 2-[({4-[(3-fluoropyridin-4-yl)amino]-2-(pyridin-2-yl)pyrrolo[2,1-f][1,2,4]triazin-5-yl}methyl)amino]cyclohexan-1-ol] |
